Assay results taken from publication PMC10598831 (JACS Au, 2023).

Legend:
GDI1 = molecular target: T1, GDI1 (Homo sapiens, UniProt P31150); experiment: GDI1 level by Western blot, AsPC-1 cells; assay type: cell-based; conditions: up to 10 μM
T1 sequence (P31150 1-447): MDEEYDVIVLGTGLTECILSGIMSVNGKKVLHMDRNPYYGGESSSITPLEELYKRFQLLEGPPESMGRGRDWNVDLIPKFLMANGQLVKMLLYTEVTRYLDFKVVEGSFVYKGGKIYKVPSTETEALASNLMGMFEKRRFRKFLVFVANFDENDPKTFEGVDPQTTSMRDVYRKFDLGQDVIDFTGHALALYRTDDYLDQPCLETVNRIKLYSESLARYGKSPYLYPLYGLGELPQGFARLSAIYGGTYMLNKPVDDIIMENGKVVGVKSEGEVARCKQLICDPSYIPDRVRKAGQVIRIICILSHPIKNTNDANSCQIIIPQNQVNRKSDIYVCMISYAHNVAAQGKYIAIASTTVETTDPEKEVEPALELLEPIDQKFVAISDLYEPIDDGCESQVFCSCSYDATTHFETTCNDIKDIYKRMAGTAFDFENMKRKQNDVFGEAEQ

GDI2 [1] = molecular target: T2, GDI2 (Homo sapiens, UniProt P50395); experiment: Biolayer interferometry; assay type: binding
T2 sequence (P50395 1-445): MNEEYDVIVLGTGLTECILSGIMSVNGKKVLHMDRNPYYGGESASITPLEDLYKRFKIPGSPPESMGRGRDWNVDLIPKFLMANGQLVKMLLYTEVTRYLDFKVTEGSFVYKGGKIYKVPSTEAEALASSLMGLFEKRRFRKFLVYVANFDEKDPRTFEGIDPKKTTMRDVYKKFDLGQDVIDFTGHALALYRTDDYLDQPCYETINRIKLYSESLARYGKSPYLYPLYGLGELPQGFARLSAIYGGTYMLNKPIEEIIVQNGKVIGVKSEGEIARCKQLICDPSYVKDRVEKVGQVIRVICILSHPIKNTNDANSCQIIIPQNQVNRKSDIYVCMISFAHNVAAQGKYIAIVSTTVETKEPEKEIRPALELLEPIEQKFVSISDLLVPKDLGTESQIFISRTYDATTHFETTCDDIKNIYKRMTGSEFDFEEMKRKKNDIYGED

PDAC PDX tumors = experiment: Pancreatic adenocarcinoma PDX model; assay type: in vivo, mouse
AsPC-1 xenograft = experiment: AsPC-1 pancreatic carcinoma xenograft model; assay type: in vivo, mouse
GDI2 [2] = molecular target: T2, GDI2; experiment: GDI2 degradation by Western blot, AsPC-1 cells; assay type: cell-based

## Cc1cc(C)cc(COc2cc3c(cc2OCc2cc(C)cc(C)c2)[C@H]2C[C@](O)(Cc4cn(CCOCCOCCOCCNC(=O)[C@@H](CC(C)C)NC(=O)[C@@H](O)[C@H](N)Cc5ccccc5)nn4)C[C@H](C)N2CC3)c1 [Compound 21]
GDI1
  Effect on GDI1 protein level: without affecting the GDI1 protein level
GDI2 [1]
  Kd: 23.9 µM
PDAC PDX tumors; 18 days of treatment
  Toxicity: without significant toxicity
PDAC PDX tumors; (+)-37 40 mg/kg ip., 21 15 mg/kg ip., every 3 days, 18 days
  PDAC tumor growth: successfully suppressed PDAC tumor growth
AsPC-1 xenograft; 15 mg/kg ip., 72 h post final injection, Western blot
  GDI2 not restored in tumor tissue: more than 90%
AsPC-1 xenograft; 18 days of treatment
  Toxicity (body weight, histopathology of major organs): No significant signs of toxicity
AsPC-1 xenograft; (+)-37 25 or 40 mg/kg ip., 21 15 mg/kg ip., every 3 days, 18 days
  Tumor growth vs vehicle: significantly attenuated tumor growth
GDI2 [2]; ASPC1, read-out: GDI2 Dmax
  Dmax: 84.2%
GDI2 [2]; AsPC-1 cells, after 9 h of treatment
  GDI2 depleted: > 70%
GDI2 [2]; read-out: GDI2 DC50, AsPC-1 cells, 0.63–10 μM, 24 h, n = 3
  DC50: 1.48 µM
